Results on four molecules are retold here after patent US7371207B2 (Wyeth, priority 2002, dated 2008).

For series [1], the system named is gene expression in the kidney of mice expressing ΔAF1-ERα. Kind of series: Real-time PCR of kidney gene expression in ERαERβKO or ERαKO mice expressing ΔAF1-ERα. (Real-time PCR tracks product formation cycle by cycle.)
Experimental: Kidney gene expression values were determined by real-time PCR for each individual animal and normalized for GAPDH expression. The mean expression level in vehicle-treated WT mice was defined as 1 for each gene. *p<0.01 for comparison to vehicle treated animals.
One week later, the animals were ovariectomized. Commencing the day after ovariectomy, each animal received a daily subcutaneous treatment with vehicle (50% DMSO, 50% phosphate buffered saline) or vehicle containing treatments for six weeks. Each group consisted of six or seven animals. Approximately 2 hours following the final treatment, the animals were euthanized with selected tissues frozen in liquid nitrogen for RNA analysis or on dry ice for histology.
The target in another series is ERα (Homo sapiens, UniProt P03372). The following applies: cited from earlier work.
Series [2] concerns gene expression in the kidney. Briefly: Real-time PCR of kidney gene expression in ovariectomized WT mice. Particulars: 10 μg/kg/day E2 or 5 mg/kg/day tamoxifen, 6 weeks, FIG. 8. From the text:
FIGS. 5A-5B show a series of graphs showing expression levels for various genes. […] (B) Uterine wet weights (mg) and gene expression values (mean±SEM).
FIGS. 6A-6D show a series of bar graphs depicting relative expression levels for various genes.
(§1) One week later, the animals were ovariectomized.

For series [3], the system named is gene expression in the kidney. Briefly: In situ hybridization of kidney, ovariectomized rats. The series is classed as in vivo, rat.
From the text: (§2) No signal was detected with the corresponding sense probes.
(§3) Generally, in situ hybridization comprises the following major steps: (1) fixation of tissue or biological structure to be analyzed; (2) prehybridization treatment of the biological structure to increase accessibility of target nucleic acid, and to reduce nonspecific binding; (3) hybridization of the mixture of nucleic acids to the nucleic acid in the biological structure or tissue; (4) post-hybridization washes to remove nucleic acid fragments not bound in the hybridization, and (5) detection of the hybridized nucleic acid fragments. The probes used in such applications are typically labeled, for example, with radioisotopes or fluorescent reporters. Preferred probes are sufficiently long, for example, from about 50, 100, or 200 nucleotides to about 1000 or more nucleotides, to enable specific hybridization with the target nucleic acid(s) under stringent conditions.
as §1

Series [4] deals with gene expression in the uterus. Briefly: GeneChip microarray survey of E2 regulated gene expression, uterus. The protocol: (§4) FIG. 1 depicts a pattern analysis generated by a GeneChip microarray analysis. […] Two hours following the final dose, the mice were euthanized and 13 tissues removed for RNA preparation. Two independent studies were performed, with total RNA pooled from two groups of three animals for each condition. Gene expression was quantified by GeneChip microarrays using murine U74 sub A arrays. Data were analyzed for patterns indicating either ERα or ERβ dependent regulation as shown. […] The number of genes in each tissue that matched the theoretical induction (↑) or repression (↓) patterns for ERα or ERβ are indicated.
as §1
(§5) GeneChip—Total RNA was prepared separately from each individual organ by using Trizol (Invitrogen) followed by subsequent repurification on Rneasy columns (Qiagen). In general, two pools of RNA were created using equal amounts of RNA from three mice. For small organs such as pituitary, an equal amount of RNA from six animals was combined.
(§6) Target Preparation and Array Hybridization—Total RNA was used to generate biotin labeled cRNA target as described (8) which was hybridized to the murine MG_U74Av2 probe arrays (Affymetrix, Santa Clara, Calif.) for 16 h at 45° C. Eleven biotin-labeled cRNAs at defined concentration were spiked into each hybridization and used to convert average difference values to frequencies expressed as parts per million.
(§7) The resulting data set was queried for genes whose regulation was dependent on ERα or ERβ.

Series [5] relates to gene expression in the pituitary. Kind of series: GeneChip microarray survey of E2 regulated gene expression, pituitary. Type of series: in vivo, mouse. Particulars: mouse, in vivo.
From the text: as §1

For series [6], the system named is gene expression in the kidney. Briefly: GeneChip microarray survey of E2 regulated gene expression, kidney. The protocol:
as §4
FIGS. 2A-2C show a series of bar graphs showing gene expression levels of known genes regulated in the kidney in an ERα pattern. […] Expression was measured in two independent sets of animals, with two groups of animals for each treatment in each study. A gene name abbreviation is shown above each graph, with the corresponding Unigene designation shown below.
as §1, §5, §6, §7

Series [7] relates to gene expression in the kidney. Kind of series: In situ hybridization of kidney, ovariectomized mice. The series is classed as in vivo, mouse. Particulars: regulated only in tubule epithelial cells.
From the text: as §2, §3, §1

The mark [8] stands for this setting: 10 μg/kg/day E2 or 5 mg/kg/day tamoxifen, 6 weeks, FIG. 8.
[9] abbreviates: Table II: mouse uterus and human endometrium.
Where [10] appears, read: WT versus ΔAF1-ERα mice, E2 versus tamoxifen.

Sequence of ERα (P03372 whole entry): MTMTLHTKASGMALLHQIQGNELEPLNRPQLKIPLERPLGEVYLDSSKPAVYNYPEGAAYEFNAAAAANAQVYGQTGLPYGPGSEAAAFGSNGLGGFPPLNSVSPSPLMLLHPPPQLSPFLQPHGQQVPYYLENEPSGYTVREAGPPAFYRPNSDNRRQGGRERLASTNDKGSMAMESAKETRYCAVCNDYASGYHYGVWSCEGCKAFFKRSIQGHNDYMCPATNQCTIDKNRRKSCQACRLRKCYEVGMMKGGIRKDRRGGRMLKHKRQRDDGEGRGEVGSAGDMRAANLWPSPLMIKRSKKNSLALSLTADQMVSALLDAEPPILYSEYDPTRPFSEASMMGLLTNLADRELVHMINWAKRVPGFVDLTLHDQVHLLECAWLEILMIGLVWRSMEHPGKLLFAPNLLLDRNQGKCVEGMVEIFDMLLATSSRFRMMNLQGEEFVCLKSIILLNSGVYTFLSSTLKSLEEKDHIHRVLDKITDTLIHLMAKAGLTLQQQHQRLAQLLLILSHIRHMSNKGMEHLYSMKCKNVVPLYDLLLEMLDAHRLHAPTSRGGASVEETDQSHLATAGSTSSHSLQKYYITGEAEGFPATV

With `C[C@]12CC[C@@H]3c4ccc(O)cc4C[C@@H](CCCCCCCCC[S+]([O-])CCCC(F)(F)C(F)(F)F)[C@H]3[C@@H]1CC[C@@H]2O` (some centres unmarked) [ICI182780], in series [1] (10 μg/kg/day E2 + 5 mg/kg/day ICI182780, 6 weeks, FIG. 8), the “effect on E2 induction of CYP7B1 in kidney” value is “blocked”. In addition, the “effect on E2 regulation of gene expression in the kidney” value in series [1] (10 μg/kg/day E2 + 5 mg/kg/day ICI182780, FIG. 8) was “complete antagonist”.
With `CCCc1c(-c2ccc(O)cc2)nn(-c2ccc(O)cc2)c1-c1ccc(O)cc1` [PPT, 4-propyl-1,3,5-Tris(4-hydroxy-phenyl)pyrazole], the “activation of ERα versus ERβ” value at ERα is given as “exclusively activates ERα but not ERβ”.
Turning to `CC/C(=C(\c1ccccc1)c1ccc(OCCN(C)C)cc1)c1ccccc1` [tamoxifen], in series [2], the “BCAT1 expression in kidney, WT mice” value is “induced”; the “CYP7B1 expression in kidney, WT mice” value is reported as “induced by E2 but not by tamoxifen”; the “TF expression in kidney, WT mice” value is “induced”. Besides, in series [1] (setting [8]), the “BCAT1 expression in kidney, ERαERβKO mice” value is reported as “did not” and the “TF expression in kidney, ERαERβKO mice (express only ΔAF1-ERα)” value was “Neither compound could induce TF expression”.
As for estrogen, the “regulation of STAT5A and GADD45G in rat kidney” value in series [3] (20 μg/kg/day E2 six weeks, FIG. 4) is “occurred in rat kidney juxtamedullary region”. Also, in series [3] (mouse and rat), the “GADD45G regulation in kidney across species” value was “Regulated in multiple species (mouse and rat)”; the “STAT5A regulation in kidney across species” value is “Regulated in multiple species (mouse and rat)”. Besides, in series [4] (setting [9]), the “Deiodinase, type II expression in uterus” value is “induced”; the “IGFBP4 expression in uterus” value is “induced”; the “Procollagen, type I, alpha 1 expression in uterus” value is listed as “induced”; the “SFRP4 expression in uterus” value is recorded as “induced”. Moreover, in series [4] (setting [9]), the “Scavenger receptor expression in uterus” value is reported as “repressed” and the “vimentin expression in uterus” value is “induced”. Further, in series [4] (mouse, in vivo), the “AI121305 expression in uterus” value is recorded as “induced”, the “ALOX15 expression in uterus” value is listed as “induced”, the “BCAT1 expression in uterus” value is on record as “induced” and the “C3 expression in uterus” value is recorded as “induced”. Further, in series [4] (mouse, in vivo), the “CEBPb expression in uterus” value is “induced”, the “EGR1 expression in uterus” value is “induced”, the “FOS expression in uterus” value was “induced” and the “MAP2k1 expression in uterus” value was “induced”. In series [4] (mouse, in vivo), the “SiAMOX expression in uterus” value is given as “induced”. In series [5], the “FSHb expression in pituitary” value is recorded as “repressed”, the “GADD45G expression in pituitary” value is reported as “induced” and the “STAT5B expression in pituitary” value is on record as “induced”. Further, in series [5] (listed as estrogens), the “FSHb expression in pituitary” value is “Repressed by estrogens”, the “GADD45G expression in pituitary” value was “Induced by estrogens” and the “STAT5B expression in pituitary” value is listed as “Induced by estrogens”. In addition, in series [6] (mRNA level), the “ABCC3 expression in kidney” value is “induced expression” and the “NTT73 expression in kidney” value is “induced expression”. Further, in series [6] (mouse, in vivo), the “BCAT1 expression in kidney” value is reported as “induced expression”, the “BHMT expression in kidney” value is on record as “repressed expression”, the “SAHH expression in kidney” value is “repressed expression” and the “STAT5A expression in kidney” value is “induced expression”. Moreover, the “Tissue Factor expression in kidney” value in series [6] (mouse, in vivo) is on record as “induced expression”. Also, the “BHMT expression in kidney” value in series [6] (mouse, in vivo, listed as estrogens) is on record as “A repression by estrogens”. In addition, in series [1] (setting [10]), the “mechanism of induction of BCAT1 in kidney (ERα AF1 or AF2)” value is “Mechanism is ERα AF1 + AF2 dependent”, the “mechanism of induction of CYP7B1 in kidney (ERα AF1 or AF2)” value is on record as “Mechanism is ERα AF2 dependent” and the “mechanism of induction of TF (Tissue Factor) in kidney (ERα AF1 or AF2)” value is “Mechanism is ERα AF1 dependent”. Further, the “GADD45G expression in kidney” value in series [7] is “induced expression”.
